Assays:
human EDG-3 [1] = target: T1, human EDG-3 (Homo sapiens, UniProt Q99500); assay: SRE luciferase reporter in 293-EBNA cells, EDG-3; assay type: cell-based; conditions: EDG-3 clone pC3-E3HP2; 3 μM; 6 hours
T1 construct: expressed in transfected cells; host or cells: 293-EBNA
Protocol: NE-κB activates gene expression by binding to specific DNA sequences found in the promoters of genes regulated by this inflammation-related transcription factor. […] Transient Transfection Protocol for 293-EBNA (Assay 3): The protocol described in Example 11 for Assay 1 was followed except for the following changes: […] 3) 30 μl Lipofectamine Reagent (Lipofectamine Plus Kit) was diluted in 750 μl DMEM/F12. The diluted Lipofectamine was then combined with the DNA/Plus mixture and incubated at room temperature for 15 min. […] 2) Transfected cells were harvested by trypsinization and 50,000 cells per well were plated in 96-well Blackview plates coated with poly D-lysine (Becton Dickinson Labware, Cat. 40640). No cells were plated in the outside wells of the 96-well plate. […] The following treatments were used for all transfections: […] 2) The cells were treated for 6 hours. 3) Luciferase assay was performed.

human EDG-3 [2] = assay: NF-κB luciferase reporter in 293-EBNA cells, EDG-3; assay type: cell-based; conditions: for NF-κB response, original human EDG-3 clone: original human EDG-3 clone (pC3-hedg3)
Protocol: 2) 3 μg NFκB-tk-p4Luc reporter DNA and 3 μg pC3-hedg1, pC3-hedg3, pC3-redg4, pC3-hedg5 or pcDNA3 DNA was diluted in 240 μl OPTI-MEM (Gibco; Cat. 31985-062)
Transient Transfection Protocol for 293-EBNA (Assay 3):
The protocol described in Example 11 for Assay 1 was followed except for the following changes:
2) SRE Cotransfection: 0.5 μg of 2XSREtk-p4Luc-zeo reporter DNA and 3.5 μg pcDNA3, EDG-1, EDG-3 (pC3-hE3HP2, different from the clone used in Assay 2 of Example 11) or the newly cloned human EDG-4 (pC3-hedg4#36); NF-κB Cotransfection: 2 μg 6XNFκBtk-p4Luc-zeo reporter DNA and 2.0 μg pcDNA3, EDG-1, EDG-3 (pC3-hE3HP2), or EDG-4 (pC3-hedg4#36). Expression plasmid and reporter plasmid DNA samples were combined and diluted in 750 μl of DMEM/F12 (serum free media) and 20 μl Plus Reagent (Lipofectamine Plus Kit, Life Technologies Cat. 10964-013), and incubated at room temperature for 15 min.
3) 30 μl Lipofectamine Reagent (Lipofectamine Plus Kit) was diluted in 750 μl DMEM/F12. The diluted Lipofectamine was then combined with the DNA/Plus mixture and incubated at room temperature for 15 min.
6) The transfection medium was replaced with serum-free DMEM/F12 for cells transfected with 2XSREtk-p4Luc-zeo reporter DNA and with DMEM/F12 plus 10% FBS for cells tansfected with 6XNFκBtk-p4Luc-zeo reporter DNA.
2) Transfected cells were harvested by trypsinization and 50,000 cells per well were plated in 96-well Blackview plates coated with poly D-lysine (Becton Dickinson Labware, Cat. 40640). No cells were plated in the outside wells of the 96-well plate.
1) Media for cells transfected with 6XNFκBtk-p4Luc-zeo reporter DNA was replaced with DMEM/F12 plus 0.5%FBS.
1) Media was removed and cells treated with compounds diluted in DMEM/F12 media.
2) The cells were treated for 6 hours.
3) Luciferase assay was performed.

human EDG-4 = human EDG-4 (Homo sapiens, UniProt O95136); assay: NF-κB luciferase reporter in 293-EBNA cells, human EDG-4; assay type: cell-based; conditions: human EDG-4 (pC3-hedg4#36); 3 μM; 6 hours
Protocol: Transient Transfection Protocol for 293-EBNA (Assay 3): The protocol described in Example 11 for Assay 1 was followed except for the following changes: […] 3) 30 μl Lipofectamine Reagent (Lipofectamine Plus Kit) was diluted in 750 μl DMEM/F12. The diluted Lipofectamine was then combined with the DNA/Plus mixture and incubated at room temperature for 15 min. […] 2) Transfected cells were harvested by trypsinization and 50,000 cells per well were plated in 96-well Blackview plates coated with poly D-lysine (Becton Dickinson Labware, Cat. 40640). No cells were plated in the outside wells of the 96-well plate. […] 1) Media was removed and cells treated with compounds diluted in DMEM/F12 media. The following treatments were used for all transfections: […] 2) The cells were treated for 6 hours. 3) Luciferase assay was performed.

rat edg4 [3] = target: T2, rat edg4 (Rattus norvegicus, UniProt P47752); assay: SRE luciferase reporter in 293-EBNA cells, rat EDG-4; assay type: cell-based; parameters: expressed in transfected cells; host or cells: 293-EBNA; conditions: 3 μM SPC, 6 hr
Protocol: Transfection was accomplished using the Lipofectamine Plus kit (Life Technologies, Cat. 10964-013), using the manufacturer's recommended conditions. Optimal SRE induction was seen when cells were seeded so as to become 100% confluent at the time of treatment, 72-96 hr after transfection.

HL-60 cells = assay: Cytotoxicity (cell viability) in HL-60 cells; assay type: cell-based, human
Protocol: For this purpose, an experiment was conducted to measure cytotoxicity in parallel with IL-8 response. […] Therefore, IL-8 production had to be robust to be observed at 6 hr, while even slight or delayed toxicity would be seen as a loss of viability at 24 hr.

rat edg4 [4] = target: T2, rat edg4; assay: IL-8 ELISA on COS-1 cells transiently transfected with rat EDG-4; assay type: cell-based; parameters: expressed in transfected cells
Protocol: A. DEAE/Dextran Cell Suspension Transient Transfection.
Transfection was done as described in Anal Biochem 218:460 (1994).
1) 6 ml RSC was added to 4-50 ml tubes. The following amounts of DNA were added:
3) 1.5 ml COS-1 cell suspension (5.5×10^6 cells total) in RSC was added to each tube and incubated for 105 min in 37° C. incubator. Tubes were mixed every 20 min.
4) Following incubation, tubes were spun for 5 min, cell pellets were washed with DMEM/F12+10% FBS once and then resuspended in 10 ml media. Cells were plated in 24-well plates at 0.2×10^6 cells/well.
500 μl treatment volume was used. Supernatants were microfuged at 14,000 rpm for 10 min., transferred to new eppendorf tubes and stored at −20° C. for future IL-8 ELISA determination.
The procedure as outlined in Procedure for HeLa Cells (D) was followed, using 50 μl of sample per ELISA determination in duplicate.

EDG-1 = EDG-1 (Homo sapiens, UniProt P21453); assay: NF-κB luciferase reporter in 293-EBNA cells, EDG-1; assay type: cell-based; parameters: expressed in transfected cells; host or cells: 293-EBNA; conditions: 3 μM, 6 hours
Protocol: 3) 30 μl Lipofectamine Reagent (Lipofectamine Plus Kit) was diluted in 750 μl DMEM/F12. The diluted Lipofectamine was then combined with the DNA/Plus mixture and incubated at room temperature for 15 min. […] 2) Transfected cells were harvested by trypsinization and 50,000 cells per well were plated in 96-well Blackview plates coated with poly D-lysine (Becton Dickinson Labware, Cat. 40640). No cells were plated in the outside wells of the 96-well plate. […] 1) Media was removed and cells treated with compounds diluted in DMEM/F12 media. […] 2) The cells were treated for 6 hours. 3) Luciferase assay was performed.

T2 sequence (P47752 whole entry): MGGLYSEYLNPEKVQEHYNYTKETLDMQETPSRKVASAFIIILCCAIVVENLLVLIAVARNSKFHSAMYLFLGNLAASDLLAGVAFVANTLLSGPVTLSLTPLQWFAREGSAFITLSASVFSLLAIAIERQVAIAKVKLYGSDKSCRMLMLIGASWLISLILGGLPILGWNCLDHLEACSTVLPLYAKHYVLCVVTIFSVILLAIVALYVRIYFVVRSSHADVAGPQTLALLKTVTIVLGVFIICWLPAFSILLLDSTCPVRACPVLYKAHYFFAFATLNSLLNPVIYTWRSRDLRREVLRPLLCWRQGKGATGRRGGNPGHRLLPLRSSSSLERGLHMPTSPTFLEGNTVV
T1 sequence (Q99500 whole entry): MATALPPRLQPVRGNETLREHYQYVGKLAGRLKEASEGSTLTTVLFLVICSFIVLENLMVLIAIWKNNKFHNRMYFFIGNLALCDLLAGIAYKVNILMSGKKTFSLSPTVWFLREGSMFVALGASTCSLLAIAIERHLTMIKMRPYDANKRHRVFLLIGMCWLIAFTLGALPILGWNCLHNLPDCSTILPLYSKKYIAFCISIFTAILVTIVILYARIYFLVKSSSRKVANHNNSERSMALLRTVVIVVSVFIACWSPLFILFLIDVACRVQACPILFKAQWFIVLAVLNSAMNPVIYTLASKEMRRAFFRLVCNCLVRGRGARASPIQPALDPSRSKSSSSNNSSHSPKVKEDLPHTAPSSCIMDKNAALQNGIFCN
Sequence of EDG-1 (P21453 whole entry): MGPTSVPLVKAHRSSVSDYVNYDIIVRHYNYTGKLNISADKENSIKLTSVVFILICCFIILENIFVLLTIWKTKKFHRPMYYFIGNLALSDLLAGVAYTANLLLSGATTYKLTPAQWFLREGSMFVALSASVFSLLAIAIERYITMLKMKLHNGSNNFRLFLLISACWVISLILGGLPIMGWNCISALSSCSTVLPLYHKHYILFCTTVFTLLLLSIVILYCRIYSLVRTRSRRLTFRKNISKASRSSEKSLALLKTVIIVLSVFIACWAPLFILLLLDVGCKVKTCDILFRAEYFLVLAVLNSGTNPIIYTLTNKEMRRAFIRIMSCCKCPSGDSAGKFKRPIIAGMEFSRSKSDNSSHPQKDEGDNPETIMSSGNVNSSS

SMILES | SRE response (human EDG-3 [1]) [fold] | Induction of the NF-κB reporter gene compared to untreated controls (human EDG-3 [2]; EDG-3 clone pC3-E3HP2, 3 μM, 6 hours) | NF-κB response, original human EDG-3 clone (human EDG-3 [2]) | Induction of the NF-κB reporter gene (human EDG-4) [fold] | Induction of luciferase activity (SRE reporter) (rat edg4 [3]) [fold] | Concentration at which toxicity begins (HL-60 cells) [µM] | Increase in IL-8 release compared to untreated cells (rat edg4 [4]; COS-1 cells transfected with EDG-4 expression plasmid, 5 μm, overnight) [fold] | PTX sensitivity of IL-8 response (rat edg4 [4]; EDG-4 transfected COS-1 cells, PTX 50 ng/ml) | Luciferase activity (NF-κB reporter) (EDG-1)
CCCCCCCCCCCCC/C=C/[C@@H](O)[C@@H](N)COP(=O)([O-])OCC[N+](C)(C)C [SPC, sphingosylphosphorylcholine] | 11 | about 8 fold | did not produce a NF-κB response | 9 | 35.6 | – | – | – | –
CCCCCCCCCCCCC/C=C/[C@@H](O)[C@@H](N)COP(=O)(O)O [S1P, sphingosine-1-phosphate] | 12 | – | did not produce a NF-κB response | 4.5 | – | 10 | 2 | pertussis toxin sensitive | no increase in luciferase activity
